The source of these data is PubChem BioAssay (NCI).

The structures appear in SMILES notation.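 Cultured in 96-well plates, cells were exposed to test compound for 48 hours across five concentrations. TGI: concentration producing complete growth inhibition.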

Test systems include OVCAR-4 ovarian; HL-60(TB) leukemia; UACC-257 melanoma; K-562 leukemia; NCI/ADR-RES ovarian; HCT-116 colon; NCI-H460 lung; SW-620 colon; MDA-MB-231 breast; DU-145 prostate; ACHN renal; MALME-3M melanoma; T-47D breast; MCF7 breast; OVCAR-3 ovarian; MDA-N; 786-0 renal; RXF 393 renal; UO-31 renal; HOP-62 NSCLC.
Assay in all cases: NCI tumour cell line growth inhibition, 48 h

Consider `COc1ccc(N[C@H](CS(=O)c2ccc(C)cc2)C(F)(F)F)cc1` (stereo not given in full), for which the TGI with OVCAR-4 ovarian, in the assay on HL-60(TB) leukemia, in the assay with UACC-257 melanoma, in the assay on K-562 leukemia, with NCI/ADR-RES ovarian and with HCT-116 colon was more than 100 µM in each case. In addition, the TGI with NCI-H460 lung, with SW-620 colon, in the assay on MDA-MB-231 breast, in the assay on DU-145 prostate, with ACHN renal and in the assay with MALME-3M melanoma was more than 100 µM in each case. Also, the TGI in the assay with T-47D breast, in the assay with MCF7 breast, in the assay with OVCAR-3 ovarian, in the assay with MDA-N, with 786-0 renal and in the assay with RXF 393 renal was more than 100 µM each time. Further, the TGI in the assay on UO-31 renal was more than 100 µM.
Take `CCCC(=O)Nc1cc(/C=C/C(=O)N2CC(CCl)c3ccc([N+](=O)[O-])cc32)n(C)c1` (stereo not given): the TGI in the assay with OVCAR-4 ovarian, with UACC-257 melanoma, in the assay with K-562 leukemia, in the assay on NCI/ADR-RES ovarian, with HCT-116 colon and with SW-620 colon was more than 100 µM in each case. The TGI with MDA-MB-231 breast, in the assay with DU-145 prostate, with ACHN renal, in the assay with MALME-3M melanoma, in the assay with T-47D breast and in the assay with MCF7 breast was more than 100 µM throughout. In addition, the TGI with OVCAR-3 ovarian, in the assay on MDA-N, with 786-0 renal, in the assay with RXF 393 renal and with UO-31 renal was more than 100 µM in each case.
For `Cc1cc(OP2(=O)NCc3ccncc3O2)ccc1Cl` (stereo not given), the TGI in the assay on OVCAR-4 ovarian, with UACC-257 melanoma, in the assay with K-562 leukemia, in the assay with NCI/ADR-RES ovarian, in the assay with HCT-116 colon and with NCI-H460 lung was more than 100 µM in each case. Moreover, the TGI in the assay with SW-620 colon, with MDA-MB-231 breast, in the assay on DU-145 prostate, in the assay on ACHN renal, in the assay with T-47D breast and with HOP-62 NSCLC was more than 100 µM each time. In addition, the TGI in the assay on MCF7 breast, in the assay with OVCAR-3 ovarian, in the assay with MDA-N, in the assay with 786-0 renal, in the assay with RXF 393 renal and in the assay on UO-31 renal was more than 100 µM in each case.
With `COc1ccc(CC2Cc3ccccc3CC(=O)N2)cc1OC` (stereo not given), the TGI in the assay on OVCAR-4 ovarian, with HL-60(TB) leukemia, with UACC-257 melanoma, in the assay with K-562 leukemia, with NCI/ADR-RES ovarian and with HCT-116 colon was more than 100 µM each time. For the same molecule, the TGI with NCI-H460 lung, in the assay with SW-620 colon, with MDA-MB-231 breast, in the assay with DU-145 prostate, in the assay with ACHN renal and in the assay on MALME-3M melanoma was more than 100 µM in each case. The TGI in the assay with T-47D breast was 58.5 µM; in the assay on HOP-62 NSCLC, more than 100 µM; in the assay on MCF7 breast it was more than 100 µM; with OVCAR-3 ovarian it was more than 100 µM; in the assay with MDA-N it was more than 100 µM; in the assay with 786-0 renal it was more than 100 µM. This molecule also returned a TGI in the assay on UO-31 renal of more than 100 µM.
In the case of `Cc1c(C)c(S(=O)(=O)N(CCCN)OCCCN)c(C)c2c1OC(C)(C)CC2`, the TGI in the assay on OVCAR-4 ovarian was found to be 23.6 µM; in the assay with UACC-257 melanoma it was 27.3 µM; with K-562 leukemia, 29.6 µM; in the assay with NCI/ADR-RES ovarian, 60.1 µM; with HCT-116 colon it was 30 µM; with NCI-H460 lung, 30.3 µM. For the same molecule, the TGI worked out at 29 µM in the assay on SW-620 colon; 17.6 µM in the assay with MDA-MB-231 breast; 29.5 µM with DU-145 prostate; 29.6 µM with ACHN renal; 27.8 µM in the assay on MALME-3M melanoma; 33.5 µM with T-47D breast. The TGI in the assay with HOP-62 NSCLC was determined as 27.2 µM; in the assay with MCF7 breast, 29.1 µM; with OVCAR-3 ovarian it was 29.5 µM; with MDA-N, 29.2 µM; in the assay on 786-0 renal, 29.4 µM; in the assay with RXF 393 renal, 21.4 µM. Moreover, in the assay on UO-31 renal, the TGI amounted to 31.5 µM.
In the case of `COc1cc(/C=C2\N=C(c3ccccc3)N(c3nc4ccccc4s3)C2=O)cc(OC)c1OC`, the TGI was 68 µM in the assay with OVCAR-4 ovarian; more than 100 µM in the assay on HL-60(TB) leukemia; more than 100 µM with UACC-257 melanoma; more than 100 µM in the assay on K-562 leukemia; 62 µM in the assay on NCI/ADR-RES ovarian; more than 100 µM in the assay on HCT-116 colon. In addition, the TGI is more than 100 µM with NCI-H460 lung; more than 100 µM with SW-620 colon; more than 100 µM in the assay with MDA-MB-231 breast; more than 100 µM with DU-145 prostate; 84.5 µM with ACHN renal; more than 100 µM in the assay with T-47D breast. The TGI was more than 100 µM in the assay with HOP-62 NSCLC; more than 100 µM with MCF7 breast; 60.4 µM in the assay on OVCAR-3 ovarian; 54.4 µM with MDA-N; 69.3 µM in the assay on 786-0 renal; 50.7 µM in the assay with RXF 393 renal. The molecule further came in with a TGI in the assay with UO-31 renal of more than 100 µM.
`Cc1ccc(N2C=Nn3c(nc4sc5c(c4c3=O)CCCC5)C2)cc1`: the TGI in the assay on OVCAR-4 ovarian, in the assay on UACC-257 melanoma, in the assay on K-562 leukemia, with NCI/ADR-RES ovarian, in the assay with HCT-116 colon and in the assay on NCI-H460 lung was more than 100 µM throughout. Also, the TGI in the assay on SW-620 colon, in the assay on MDA-MB-231 breast, in the assay on DU-145 prostate, with ACHN renal, with MALME-3M melanoma and in the assay on T-47D breast was more than 100 µM each time. Moreover, the TGI in the assay on HOP-62 NSCLC is 69.2 µM; with MCF7 breast it was more than 100 µM; in the assay with OVCAR-3 ovarian it was more than 100 µM; in the assay on MDA-N, more than 100 µM; in the assay on 786-0 renal it was more than 100 µM; in the assay with RXF 393 renal it was more than 100 µM. This molecule had a TGI in the assay on UO-31 renal of more than 100 µM.
